Assay [1] has as its target Beta-1 adrenergic receptor (Homo sapiens, UniProt P08588). It counts as functional, cell-based.
The target in assay [2] is Gamma-aminobutyric acid receptor subunit alpha-1/alpha-2/beta-2/gamma-2 (Homo sapiens, UniProt P14867+P18507+P47869+P47870). It counts as functional, cell-based.
For assay [3], the target named is Sodium channel protein type 5 subunit alpha (Homo sapiens, UniProt Q14524). It counts as functional, cell-based.
Assay [4] addresses T1, Substance-K receptor (Homo sapiens, UniProt P21452).
T1 sequence (P21452 whole entry): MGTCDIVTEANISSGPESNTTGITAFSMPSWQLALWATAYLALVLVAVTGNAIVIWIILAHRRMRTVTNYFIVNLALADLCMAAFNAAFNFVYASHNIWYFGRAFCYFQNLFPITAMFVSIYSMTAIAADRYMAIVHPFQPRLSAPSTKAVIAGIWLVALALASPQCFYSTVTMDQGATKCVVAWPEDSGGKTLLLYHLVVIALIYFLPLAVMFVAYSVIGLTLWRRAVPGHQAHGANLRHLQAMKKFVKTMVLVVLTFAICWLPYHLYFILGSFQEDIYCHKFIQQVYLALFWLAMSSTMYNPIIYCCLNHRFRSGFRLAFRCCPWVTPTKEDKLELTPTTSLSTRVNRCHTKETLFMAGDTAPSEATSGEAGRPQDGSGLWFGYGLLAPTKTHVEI

For assay [5], the target named is T2, Muscarinic acetylcholine receptor M1 (Homo sapiens, UniProt P11229).
T2 sequence (P11229 whole entry): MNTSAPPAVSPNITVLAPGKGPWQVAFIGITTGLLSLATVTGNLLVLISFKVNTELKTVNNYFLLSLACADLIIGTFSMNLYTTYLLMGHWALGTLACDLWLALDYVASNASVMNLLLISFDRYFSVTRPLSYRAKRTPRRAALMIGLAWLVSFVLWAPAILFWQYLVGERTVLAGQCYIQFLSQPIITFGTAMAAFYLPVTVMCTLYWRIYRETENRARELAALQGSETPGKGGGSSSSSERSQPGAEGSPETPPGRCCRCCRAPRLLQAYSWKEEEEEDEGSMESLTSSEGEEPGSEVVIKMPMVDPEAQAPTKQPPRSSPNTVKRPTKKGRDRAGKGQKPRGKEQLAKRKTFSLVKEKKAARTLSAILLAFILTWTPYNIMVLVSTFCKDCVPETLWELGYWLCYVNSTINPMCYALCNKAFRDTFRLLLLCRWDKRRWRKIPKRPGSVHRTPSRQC

The target of assay [6] is D(1A) dopamine receptor (Homo sapiens, UniProt P21728).
D(1A) dopamine receptor, sequence (P21728 whole entry): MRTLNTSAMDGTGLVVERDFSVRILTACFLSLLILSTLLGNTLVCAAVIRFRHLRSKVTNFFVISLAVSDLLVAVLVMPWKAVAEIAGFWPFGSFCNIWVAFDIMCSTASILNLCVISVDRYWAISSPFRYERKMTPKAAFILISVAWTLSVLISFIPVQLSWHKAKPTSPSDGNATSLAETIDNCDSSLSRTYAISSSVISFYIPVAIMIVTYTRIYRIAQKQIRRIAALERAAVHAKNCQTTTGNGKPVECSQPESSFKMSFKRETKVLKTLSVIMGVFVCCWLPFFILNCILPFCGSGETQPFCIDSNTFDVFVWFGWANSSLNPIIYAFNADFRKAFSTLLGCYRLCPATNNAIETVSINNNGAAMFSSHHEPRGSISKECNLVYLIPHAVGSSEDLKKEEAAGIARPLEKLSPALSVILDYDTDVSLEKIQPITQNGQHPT
The target in assay [7] is T3, Muscarinic acetylcholine receptor M5 (Homo sapiens, UniProt P08912).
T3 sequence (P08912 whole entry): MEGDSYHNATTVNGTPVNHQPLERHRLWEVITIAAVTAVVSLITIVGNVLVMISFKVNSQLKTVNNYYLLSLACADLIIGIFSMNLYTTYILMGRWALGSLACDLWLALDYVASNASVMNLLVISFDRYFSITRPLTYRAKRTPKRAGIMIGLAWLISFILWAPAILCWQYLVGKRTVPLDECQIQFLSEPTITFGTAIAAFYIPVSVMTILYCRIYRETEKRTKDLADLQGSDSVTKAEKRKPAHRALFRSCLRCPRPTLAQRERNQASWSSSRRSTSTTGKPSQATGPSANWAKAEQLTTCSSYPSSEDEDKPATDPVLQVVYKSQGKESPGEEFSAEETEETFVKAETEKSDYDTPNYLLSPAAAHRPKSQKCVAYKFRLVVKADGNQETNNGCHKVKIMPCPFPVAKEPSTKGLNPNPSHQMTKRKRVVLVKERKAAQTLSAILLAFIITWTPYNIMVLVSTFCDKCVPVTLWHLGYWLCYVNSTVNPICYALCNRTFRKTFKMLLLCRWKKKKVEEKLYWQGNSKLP

The target of assay [8] is T4, Alpha-2A adrenergic receptor (Homo sapiens, UniProt P08913).
T4 sequence (P08913 whole entry): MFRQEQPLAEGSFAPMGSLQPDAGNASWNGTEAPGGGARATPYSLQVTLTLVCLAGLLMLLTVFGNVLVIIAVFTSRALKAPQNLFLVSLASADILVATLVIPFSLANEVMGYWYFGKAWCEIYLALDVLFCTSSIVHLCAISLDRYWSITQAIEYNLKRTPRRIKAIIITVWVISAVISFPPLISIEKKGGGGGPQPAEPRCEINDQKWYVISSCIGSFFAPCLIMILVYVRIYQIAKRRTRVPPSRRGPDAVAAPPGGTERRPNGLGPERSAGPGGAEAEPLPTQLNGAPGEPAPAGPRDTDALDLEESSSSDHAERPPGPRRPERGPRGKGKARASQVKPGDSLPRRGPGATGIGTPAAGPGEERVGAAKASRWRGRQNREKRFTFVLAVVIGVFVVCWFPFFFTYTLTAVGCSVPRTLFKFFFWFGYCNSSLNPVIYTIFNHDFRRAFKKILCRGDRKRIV

The target in assay [9] is Gamma-aminobutyric acid type B receptor subunit 1 (Homo sapiens, UniProt Q9UBS5).
Gamma-aminobutyric acid type B receptor subunit 1, sequence (Q9UBS5 whole entry): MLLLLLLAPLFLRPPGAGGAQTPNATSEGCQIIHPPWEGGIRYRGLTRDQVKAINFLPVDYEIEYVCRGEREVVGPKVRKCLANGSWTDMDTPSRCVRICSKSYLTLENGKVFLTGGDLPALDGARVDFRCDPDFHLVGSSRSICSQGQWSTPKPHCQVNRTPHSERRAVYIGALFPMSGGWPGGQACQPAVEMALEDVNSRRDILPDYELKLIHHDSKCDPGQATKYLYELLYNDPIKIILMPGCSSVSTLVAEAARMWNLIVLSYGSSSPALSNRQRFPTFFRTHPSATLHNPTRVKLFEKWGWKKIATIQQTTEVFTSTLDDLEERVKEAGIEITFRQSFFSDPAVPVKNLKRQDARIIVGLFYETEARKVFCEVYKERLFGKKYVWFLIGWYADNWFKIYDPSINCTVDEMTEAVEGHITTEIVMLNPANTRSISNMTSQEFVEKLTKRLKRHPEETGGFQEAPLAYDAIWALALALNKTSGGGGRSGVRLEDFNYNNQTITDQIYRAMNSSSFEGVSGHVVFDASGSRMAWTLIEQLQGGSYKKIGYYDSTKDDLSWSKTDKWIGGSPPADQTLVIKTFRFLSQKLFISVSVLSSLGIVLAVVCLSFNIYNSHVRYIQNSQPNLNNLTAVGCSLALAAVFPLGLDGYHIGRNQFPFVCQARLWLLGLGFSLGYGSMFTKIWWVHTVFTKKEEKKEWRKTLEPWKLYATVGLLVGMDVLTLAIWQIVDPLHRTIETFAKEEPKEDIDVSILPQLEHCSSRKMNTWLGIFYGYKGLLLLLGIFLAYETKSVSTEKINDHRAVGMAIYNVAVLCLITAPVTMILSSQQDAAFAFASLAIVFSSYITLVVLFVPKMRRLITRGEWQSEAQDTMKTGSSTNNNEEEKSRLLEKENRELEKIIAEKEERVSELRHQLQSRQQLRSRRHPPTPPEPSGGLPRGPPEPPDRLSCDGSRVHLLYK
The target in assay [10] is 5-hydroxytryptamine receptor 7 (Homo sapiens, UniProt P34969).
5-hydroxytryptamine receptor 7, sequence (P34969 whole entry): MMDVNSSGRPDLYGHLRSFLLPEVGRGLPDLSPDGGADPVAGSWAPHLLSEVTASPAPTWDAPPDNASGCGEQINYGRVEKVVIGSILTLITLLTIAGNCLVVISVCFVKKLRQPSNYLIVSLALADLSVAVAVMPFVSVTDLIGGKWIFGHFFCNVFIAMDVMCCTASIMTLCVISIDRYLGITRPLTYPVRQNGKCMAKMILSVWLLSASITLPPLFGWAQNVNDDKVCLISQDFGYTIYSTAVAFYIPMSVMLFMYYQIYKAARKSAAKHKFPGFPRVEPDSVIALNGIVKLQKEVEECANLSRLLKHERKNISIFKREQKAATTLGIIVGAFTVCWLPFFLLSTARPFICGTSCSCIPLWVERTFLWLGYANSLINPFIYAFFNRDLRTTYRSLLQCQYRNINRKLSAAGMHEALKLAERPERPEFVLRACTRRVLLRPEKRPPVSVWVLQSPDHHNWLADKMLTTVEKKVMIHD
Assay [11] has as its target T5, Corticotropin-releasing factor receptor 2 (Homo sapiens, UniProt Q13324).
T5 sequence (Q13324 whole entry): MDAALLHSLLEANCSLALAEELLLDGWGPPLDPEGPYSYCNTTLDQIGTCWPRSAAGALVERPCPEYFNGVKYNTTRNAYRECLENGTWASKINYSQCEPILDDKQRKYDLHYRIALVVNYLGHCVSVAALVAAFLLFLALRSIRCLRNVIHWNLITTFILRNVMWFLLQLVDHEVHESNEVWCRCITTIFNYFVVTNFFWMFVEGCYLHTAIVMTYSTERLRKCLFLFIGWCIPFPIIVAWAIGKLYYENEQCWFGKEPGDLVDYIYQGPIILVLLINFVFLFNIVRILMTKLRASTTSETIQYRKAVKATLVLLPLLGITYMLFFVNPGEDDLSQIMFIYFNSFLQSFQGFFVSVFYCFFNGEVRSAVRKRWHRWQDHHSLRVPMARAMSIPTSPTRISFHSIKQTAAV
Also: assay procedure not described here.

Beta-1 adrenergic receptor, sequence (P08588 whole entry): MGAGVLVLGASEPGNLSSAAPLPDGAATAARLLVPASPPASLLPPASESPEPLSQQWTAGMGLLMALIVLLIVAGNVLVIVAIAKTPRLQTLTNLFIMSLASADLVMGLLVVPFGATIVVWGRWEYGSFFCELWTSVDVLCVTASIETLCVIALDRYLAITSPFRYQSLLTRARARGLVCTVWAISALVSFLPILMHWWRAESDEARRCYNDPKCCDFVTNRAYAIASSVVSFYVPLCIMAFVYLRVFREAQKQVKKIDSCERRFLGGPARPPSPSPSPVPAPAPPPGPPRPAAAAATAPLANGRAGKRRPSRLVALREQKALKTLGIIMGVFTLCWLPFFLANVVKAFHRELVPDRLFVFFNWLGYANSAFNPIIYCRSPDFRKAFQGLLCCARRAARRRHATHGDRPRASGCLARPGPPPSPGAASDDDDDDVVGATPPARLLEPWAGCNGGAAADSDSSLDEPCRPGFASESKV
Sodium channel protein type 5 subunit alpha, sequence (Q14524 whole entry): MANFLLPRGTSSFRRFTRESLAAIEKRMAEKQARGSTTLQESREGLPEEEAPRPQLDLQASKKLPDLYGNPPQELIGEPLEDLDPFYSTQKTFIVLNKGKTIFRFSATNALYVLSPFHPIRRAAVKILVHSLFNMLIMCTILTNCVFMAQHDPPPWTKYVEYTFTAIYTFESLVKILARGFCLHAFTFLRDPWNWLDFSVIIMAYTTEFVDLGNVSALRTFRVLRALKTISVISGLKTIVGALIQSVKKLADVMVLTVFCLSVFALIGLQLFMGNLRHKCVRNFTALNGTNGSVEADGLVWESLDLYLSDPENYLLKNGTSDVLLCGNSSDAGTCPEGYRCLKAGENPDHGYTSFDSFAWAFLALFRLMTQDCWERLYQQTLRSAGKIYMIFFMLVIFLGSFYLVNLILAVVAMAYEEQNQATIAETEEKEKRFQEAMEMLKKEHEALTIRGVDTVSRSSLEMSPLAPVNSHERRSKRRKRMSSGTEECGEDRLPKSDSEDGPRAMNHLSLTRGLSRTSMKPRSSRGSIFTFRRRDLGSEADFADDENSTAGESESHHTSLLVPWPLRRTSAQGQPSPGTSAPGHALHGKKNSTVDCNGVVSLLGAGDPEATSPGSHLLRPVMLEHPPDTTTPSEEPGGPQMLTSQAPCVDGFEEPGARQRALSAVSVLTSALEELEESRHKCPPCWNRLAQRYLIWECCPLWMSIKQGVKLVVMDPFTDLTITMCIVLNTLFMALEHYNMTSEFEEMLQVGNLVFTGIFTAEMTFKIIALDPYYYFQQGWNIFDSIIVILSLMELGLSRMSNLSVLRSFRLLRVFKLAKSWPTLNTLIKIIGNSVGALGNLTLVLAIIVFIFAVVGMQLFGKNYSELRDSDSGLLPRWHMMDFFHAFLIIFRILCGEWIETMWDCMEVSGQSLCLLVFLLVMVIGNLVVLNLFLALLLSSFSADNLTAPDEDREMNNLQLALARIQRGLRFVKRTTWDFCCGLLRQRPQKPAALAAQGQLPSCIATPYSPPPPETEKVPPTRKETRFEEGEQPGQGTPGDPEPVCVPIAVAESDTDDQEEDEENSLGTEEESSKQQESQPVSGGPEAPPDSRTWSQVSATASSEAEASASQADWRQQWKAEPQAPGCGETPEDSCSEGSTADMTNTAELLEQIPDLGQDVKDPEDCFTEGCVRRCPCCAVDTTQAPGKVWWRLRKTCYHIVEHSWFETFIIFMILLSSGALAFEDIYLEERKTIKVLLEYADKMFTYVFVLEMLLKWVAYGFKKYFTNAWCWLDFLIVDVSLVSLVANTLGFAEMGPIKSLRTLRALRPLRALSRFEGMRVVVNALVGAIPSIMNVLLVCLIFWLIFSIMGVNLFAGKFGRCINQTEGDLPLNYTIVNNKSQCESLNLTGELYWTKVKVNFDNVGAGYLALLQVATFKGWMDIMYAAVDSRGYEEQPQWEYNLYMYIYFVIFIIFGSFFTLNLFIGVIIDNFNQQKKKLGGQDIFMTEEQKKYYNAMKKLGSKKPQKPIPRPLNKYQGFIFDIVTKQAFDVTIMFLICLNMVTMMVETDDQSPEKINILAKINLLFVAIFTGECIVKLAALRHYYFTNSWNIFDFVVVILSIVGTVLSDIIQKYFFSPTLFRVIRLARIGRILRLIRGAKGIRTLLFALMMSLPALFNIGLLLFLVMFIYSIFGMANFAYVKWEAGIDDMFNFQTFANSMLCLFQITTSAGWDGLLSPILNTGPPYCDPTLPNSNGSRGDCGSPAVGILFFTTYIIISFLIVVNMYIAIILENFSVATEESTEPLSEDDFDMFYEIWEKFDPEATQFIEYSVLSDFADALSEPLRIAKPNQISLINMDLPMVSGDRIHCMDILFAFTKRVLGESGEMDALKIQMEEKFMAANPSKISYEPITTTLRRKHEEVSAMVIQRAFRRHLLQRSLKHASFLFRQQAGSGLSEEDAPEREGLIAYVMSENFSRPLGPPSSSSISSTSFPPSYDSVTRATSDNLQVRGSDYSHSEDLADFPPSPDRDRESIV

On to `C[N+](C)(C)CCOP(=O)([O-])OC[C@H](O)CO`, for which, in assay [1], the AC50 is more than 30 µM.

With `CN(C)C/C=C/C(=O)Nc1cc2c(Nc3ccc(F)c(Cl)c3)ncnc2cc1O[C@H]1CCOC1` [AFATINIB], the values for the AC50 in assay [2] and in [3] were more than 30 µM and more than 50 µM, respectively.

Compound `CC1=C(C(=O)OC(C)C)C(c2cccc([N+](=O)[O-])c2)C(C(=O)OC2CN(C(c3ccccc3)c3ccccc3)C2)=C(N)N1` (stereo not drawn) [AZELNIDIPINE] gave an AC50 in [3] of more than 50 µM.

As to `O=C(/C=C/c1cccc(S(=O)(=O)Nc2ccccc2)c1)NO` [BELINOSTAT], the AC50 is more than 10 µM in [4]; more than 30 µM in assay [5]; more than 10 µM in assay [6]; more than 10 µM in assay [7]; more than 10 µM in [8]; more than 10 µM in assay [9]. The AC50 in assay [10] is more than 10 µM.

As for `CC(O)(CS(=O)(=O)c1ccc(F)cc1)C(=O)Nc1ccc(C#N)c(C(F)(F)F)c1` (stereo not drawn) [BICALUTAMIDE], the AC50 is more than 10 µM in assay [6]; more than 30 µM in [11]; more than 10 µM in assay [7]; more than 10 µM in assay [8]; more than 10 µM in [9]; more than 10 µM in assay [10]. The AC50 in [3] was more than 30 µM.

Consider `O=C(O)COCCN1CCN(C(c2ccccc2)c2ccc(Cl)cc2)CC1` (stereo not drawn) [CETIRIZINE], for which the figures for the AC50 in [11], in [8] and in assay [3] were more than 30 µM, more than 10 µM and more than 30 µM, respectively.

Take `C[C@H](CCC(=O)O)[C@H]1CC[C@H]2[C@@H]3[C@H](O)C[C@@H]4C[C@H](O)CC[C@]4(C)[C@H]3C[C@H](O)[C@]12C` [CHOLIC ACID]: in assay [3], the AC50 is more than 50 µM.

For the compound `CC(=O)O[C@]1(C(C)=O)CC[C@H]2[C@@H]3C=C(Cl)C4=CC(=O)[C@@H]5C[C@@H]5[C@]4(C)[C@H]3CC[C@@]21C` [CYPROTERONE ACETATE], the AC50 in assay [6] and in assay [8] was more than 10 µM each time.

`C[C@@H]1C[C@H]2[C@@H]3C[C@H](F)C4=CC(=O)C=C[C@]4(C)[C@@]3(F)[C@@H](O)C[C@]2(C)[C@@]1(OC(=O)c1ccco1)C(=O)SCF` [FLUTICASONE FUROATE]: the AC50 in assay [4], in assay [6], in assay [7], in assay [8], in assay [9] and in assay [10] was more than 10 µM each time.

For `CNCCc1ccc(OC(=O)C(C)C)c(OC(=O)C(C)C)c1` [IBOPAMINE], the AC50 in assay [2] and in assay [1] was more than 30 µM throughout.

Consider `CN(C)CCCN1c2ccccc2CCc2ccccc21` [IMIPRAMINE], for which the AC50 was more than 10 µM in [4]; 3.2 µM in [6]; more than 30 µM in assay [11]; 0.33 µM in assay [7]; more than 10 µM in assay [8]; more than 10 µM in [10].

In the case of `CCOC(=O)C1=C(C)NC(C)=C(C(=O)OCC)C1c1ccccc1/C=C/C(=O)OC(C)(C)C` [LACIDIPINE], the concentration at half-maximal activity (AC50) in assay [3] was more than 50 µM.

In assay [1], `COC(=O)C1=C(C)NC(C)=C(C(=O)OCCN2CCN(C(c3ccccc3)c3ccccc3)CC2)C1c1cccc([N+](=O)[O-])c1` (stereo not drawn) [MANIDIPINE 6300] had an AC50 of more than 30 µM.

Regarding `CN(Cc1cnc2nc(N)nc(N)c2n1)c1ccc(C(=O)N[C@@H](CCC(=O)O)C(=O)O)cc1` [METHOTREXATE], the AC50 was more than 10 µM in assay [6], more than 30 µM in [11] and more than 10 µM in assay [8].

Compound `OC[C@H]1O[C@@H](n2cnc3c2NC=NC[C@H]3O)C[C@@H]1O` [PENTOSTATIN] registered an AC50 in [2] of more than 30 µM.

Compound `Cc1cccc(C)c1NC(=O)CC12CCCN1CCC2` [PILSICAINIDE] showed an AC50 in [3] of more than 50 µM.

In the case of `CN[C@@H](C)[C@@H](O)c1ccccc1` [PSEUDOEPHEDRINE], the concentration at half-maximal activity (AC50) in assay [6] is more than 10 µM; in assay [11], more than 30 µM; in assay [8] it was more than 10 µM.

In [1], `CCCN1CC(NS(=O)(=O)N(CC)CC)CC2Cc3c(O)cccc3CC21` (stereo not drawn) [QUINAGOLIDE] gave an AC50 of more than 30 µM.

In turn, `O=C1OC(OC(=O)c2cccnc2Nc2cccc(C(F)(F)F)c2)c2ccccc21` (stereo not drawn) [TALNIFLUMATE] showed an AC50 in assay [2] of more than 30 µM.

In the case of `O=S1(=O)CCN(CN2CCS(=O)(=O)NC2)CN1` [TAUROLIDINE], the AC50 in assay [5] and in assay [2] was more than 30 µM in each case.

As for `COc1ccc2c(C(=S)N(C)CC(=O)O)cccc2c1C(F)(F)F` [TOLRESTAT], in assay [5], the AC50 is more than 30 µM.

For the origin of these results see ChEMBL document CHEMBL5291721, “A preclinical secondary pharmacology resource illuminates target-adverse drug reaction associations of marketed drugs” (Nat Commun, 2023).
